Data published in patent US20030162803A1, “Anhydrovinblastine for the treatment of cancer” (priority 1997, published 2003).
Structures can show the parent of a compound that is named as a salt.

Assays:
[1] = test system: C-4 Human Cervical Carcinoma; test: C-4 (cervical) solid tumor model; assay type: in vivo, Rag-2 mice
Protocol: Cultures of C-4 Human Cervical Carcinoma cells are available from the British Columbia Cancer Research Centre. Cells were injected subcutaneously twice into mature male Rag-2 mice (24 mice, 1×10^6 cells/mouse) using a 26-gauge needle. The C-4 cells were suspended in a Hank's Balanced Salt Solution without calcium. Tumors were allowed to form in the mice for 31 days.
When the tumors were well established, four separate groups of mice, were selected for administration of the three test articles (i.e. one group for each test article of AHVB bisulphate, AHVB ditartrate, and Navelbine™) and one control.
AHVB bisulphate and ditartrate, and Navelbine™ were solubilized using 5% dextrose saturated with Argon. These articles were administered at doses of 20 mg/Kg intravenously. Any dose dilutions were made with 5% dextrose.
The articles were administered intravenously on the days 1, 5 and 9, as were controls of 5% dextrose. Body weights and tumor measurements with calipers were taken regularly over the period of the study of 69 days.
Following administration of the test articles, the animals; weight and tumor size (using calipers) were determined regularly over the period of the study. If the tumor size reached I gram in weight or the tumor started to ulcerate, the animals were sacrificed (by carbon dioxide inhalation) and subjected to necropsy. Animals were also monitored at least daily for signs of stress for the full length of the study. Animals manifesting severe symptoms of stress (rapid weight loss, panting, hunched posture, scruffy coat) were also sacrificed and a necropsy performed.
The results of the efficacy studies are given in Table 3 and present averages of data from 6 or fewer animals. Each mouse in a given article group had two subcutaneous tumors on its back. Each tumor was measured in length and width and the volume of each tumor was calculated by […]. The two tumor volumes were then averaged. The volume averages of all the mice/group were averaged to yield a mean for each single date point. The calculation was performed each day the tumors were measured.

[2] = Toxicological studies in rats; assay type: in vivo
[3] = Murine P388 model in BDF1 mice; assay type: in vivo; conditions: female, mouse, in vivo; single bolus intravenous injection, BDF1 mice bearing P388 tumors; read-out: maximum tolerated dose
Protocol: Antitumor studies on mice focussed, in one case, on the P388 leukaemia model. […] This is an ascitic tumor model that was generated by intraperitoneal inoculation of 1×10^6 P388 cells (derived from culture, with an original cell line obtained from the NCI tumor repository) in BDF1 mice (Charles Rivers). One day after tumor cell inoculation, mice were treated with a single intravenous injection of drug. Animal weight was monitored daily and tumor progression was measured as an increase in animal weight and through estimation of survival time. Therapy was described by a decrease in tumor progression and an increase in survival time relative to an untreated control group. Initial studies established the maximum therapeutic dose for AHVB. Subsequently comparative studies with vincristine and Navelbine™ were initiated where animals were treated with each drug at the maximum therapeutic dose.
The in vivo anti-tumor activity of AHVB was compared to that of vincristine, Navelbine™ in the BDF1-murine P388 model in the procedure as follows. P388 cells were derived from the ascities of previously injected female BDF1 mice (19-21 grams) P388 cells, from the NCI tumor repository were inoculated directly into mice. The cells arrive from NCI frozen in 1 ml aliquots. These samples were thawed rapidly at 37° C. and subsequently injected (within 1 hour) intraperitoneally into two mice, 0.5 ml per mouse. One week (7 days) after inoculation, the tumor cells were harvested by removing peritoneal fluid using a sterile syringe with a 22 gauge needle. The cells, pooled from two animals, were counted using a hemocytometer, diluted (RPMI media) to a concentration of 2×10^6 cells/ml and 0.5 ml was then re-injected into each of two BDF1 mice. Remaining cells were washed and placed into a DMSO containing media and frozen (in freezer packs that cool at a defined rate). This process was repeated weekly over a […]. Cells used for anti-tumor studies were collected from the third passage to the 20th passage. After the 20th passage the cells were no longer used for experimental studies. Newly established cells were derived from the frozen cells prepared as described above.
Groups (five mice per group) of female BDF1 mice (Charles Rivers, Canada) were injected (intraperitoneal) with 10^6 P388 cells (as described above). One day after tumor cell inoculation, the mice were given a bolus intravenous injection of indicated drug via the lateral tail vein. Control groups were injected with saline. Free drug samples were prepared on the day of injection such that the final concentrations were sufficient to deliver the indicated drug dose in a volume of 200 μl. All dilutions were made using 0.9% Sodium Chloride Injection USP. The mice were briefly (less than 30 sec.) restrained during intravenous injections. Dilation of the vein was achieved by holding the animals under a heat lamp for a period of between five and ten minutes. Following administration of the test articles, animals were weighed daily for fourteen days and monitored for signs of stress twice daily for the first 14 days (once daily on weekends) and once daily for the remainder of the study. Severely distressed animals were terminated by CO2 asphyxiation and the time of death was recorded to occur on the following day. Although complete dose titrations were completed for each drug, the data shown in FIG. 6 is that obtained after administration of the free drugs at their maximum tolerated dose. This was 3, 40 and 40 mg/kg for vincristine, Navelbine™ and AHVB, respectively.
After treating mice (bearing the P388 tumor) with a single dose of the indicated drug, animals were examined twice daily for the first 14 days (once daily on weekends). Weight gain in the control is an indication of tumor progression.
The studies were conducted as described for FIG. 6. […]

[4] = 20 mg/kg intravenously on days 1, 5, 9

SMILES	activity compared with vincristine and vinorelbine ([1]; human tumor xenografts of cervical cancer, equitoxic doses)	toxicities [2]	% Delay In Growth (Dig) [1, 4] [%]	Initial Growth (Day) Of Expt. [1, 4] [days]	Initial Growth (Day) Total [1, 4] [days]	day tumors reached observable 'growth threshold' [1, 4] [days]	MTD at 14 days [3] [mg/kg]
CCC1=C[C@H]2CN(CCc3c([nH]c4ccccc34)[C@@](C(=O)OC)(c3cc4c(cc3OC)N(C)[C@H]3[C@@](O)(C(=O)OC)[C@H](OC(C)=O)[C@]5(CC)C=CCN6CC[C@]43[C@@H]65)C2)C1 [AHVB, 3′,4′-anhydrovinblastine]	superior activity to that of both vincristine and vinorelbine	reversible myelosupression and gastrointestinal toxicities					
CCC1=C[C@@H]2CN(C1)Cc1c([nH]c3ccccc13)[C@@](C(=O)OC)(c1cc3c(cc1OC)N(C)[C@H]1[C@@](O)(C(=O)OC)[C@H](OC(C)=O)[C@]4(CC)C=CCN5CC[C@]31[C@@H]54)C2 [Navelbine, 3′,4′-didehydro-4′-deoxy-C′-norvincaleukoblastine-di-L-tartrate]			84	29	59	41	40
CC[C@]1(O)C[C@H]2CN(CCc3c([nH]c4ccccc34)[C@@](C(=O)OC)(c3cc4c(cc3OC)N(C=O)[C@H]3[C@@](O)(C(=O)OC)[C@H](OC(C)=O)[C@]5(CC)C=CCN6CC[C@]43[C@@H]65)C2)C1 [Vincristine, Sulfate of 22-oxovincaleukoblastine]							3
